Laboratory results as given in patent publication US7279099B2, “Sludge treatment process” (FKOS, LLC, priority 2004, dated 2007).
Where two headings read alike, the source gives them in different places.

Key:
[1] = test system: bacteria; assay: Disinfection of biosolids with chlorine dioxide: bacteria
[2] = test system: viruses; assay: Disinfection of biosolids with chlorine dioxide: viruses
[3] = test system: Ascaris eggs; assay: Disinfection of biosolids with chlorine dioxide alone: Ascaris eggs; conditions: concentrations as high as 1000 ppm
[4] = test system: poliovirus; conditions: ozone at 20–30 mg/L at pH 3.0 for at least two hours; cited from earlier work
[5] = test system: C. perfringens spores; conditions: only ozone used; cited from earlier work
[6] = test system: Fecal coliform; conditions: ozone at 20–30 mg/L at pH 3.0 for at least two hours; cited from earlier work
[7] = 1500 mg/L
[8] = test system: Ascaris; conditions: biosolids, closed system; cited from earlier work
[9] = test system: Ascaris eggs; conditions: for Time to PFRP: closed system
[10] = 24 h, 500 mg/L

## [O][Cl+][O-] [chlorine dioxide]
[1]
  inactivation of bacteria: capable of inactivating
[2]
  inactivation of viruses: capable of inactivating
[3]
  inactivation of Ascaris eggs: not able to inactivate

## O=[O+][O-] [ozone]
[4]
  inactivation of poliovirus: at least 90%
[5]
  inactivation of C. perfringens spores: not effective
[6]
  Fecal coliform reduction: reduced to a non-detectable level

## O=NO [nitrous acid]
[7]
  remaining nitrous acid: below 500 mg/L
[8]
  concentration capable of Ascaris inactivation: above 400 mg/L
[9]; predicted using Equation 2
  remaining HNO2 dose for PFRP to be reached in two hours: at least 25.46 mg/g

## O=NO [sodium nitrite]
[9]; TSS 3.02 %, initial NO2 dose 697 mg/L
  Time to PFRP: 12 h
[9]; TSS 3.02 %, initial NO2 dose 1046 mg/L
  Time to PFRP: 2 h
[9]; TSS 5.54 %, initial NO2 dose 1754 mg/L
  Time to PFRP: 2 h
[9]; TSS 5.54 %, initial NO2 dose 2573 mg/L
  Time to PFRP: 2 h
697 mg/L
  Average [NO2] Remaining: 340 mg/L
1046 mg/L
  Average [NO2] Remaining: 490 mg/L
1754 mg/L
  Average [NO2] Remaining: 1150 mg/L
2573 mg/L
  Average [NO2] Remaining: 1580 mg/L
[10]
  remaining sodium nitrite level: 150 to 250 mg/L
